Measurements as given in patent EP0564248A1, “N-(2-hydroxyethyl)-N-bis(methylenephosphonic acid) and corresponding N-oxide thereof for high pH scale control” (Calgon Corporation, priority 1992, dated 1993).

Assay: CaCO3 scale inhibition at pH 9 and 300X calcite saturation (% inhibition by calcium titration, Schwarzenbach method)
Protocol: PROCEDURE: Scaling water containing 250 mg/L of CO (-2)/(3) [formula] and 600 mg/L of alkalinity at a pH of 9.0 and 55°C was used to evaluate scale inhibition performance of test solutions over a 24 hr period. Test solutions were analyzed by withdrawing 10 g of test solution and adding it to the appropriate container through a 0.2 µ filter, titrating for calcium, and calculating % inhibition by the Schwarzenbach method.

`O=P(O)(O)CN(CCO)CP(=O)(O)O` [Sample No. 1, N-(2-hydroxyethyl)-N-bis(methylenephosphonic acid)] gave a scale inhibition (10% Excess Ca/Alk, 25ppm) of 67.8%, a scale inhibition (10% Excess Ca/Alk, 50ppm) of 85.6% and a scale inhibition (60°C, 50ppm) of 82.6%. It also gave a scale inhibition (pH 9, 300X CaCO₃, 50ppm, 24hrs) of 90.8% and a scale inhibition (pH 9, 300X CaCO₃, 50ppm, 4 days) of 87.5%.
